The record followed here is US20090239846A1, “Novel Compounds” (Glaxo Group Limited, priority 2005, published 2009).

The experiment concerns influx of neutrophils to the lung in LPS-challenged rats. Put plainly: Rat LPS neutrophilia model. It counts as in vivo. As to conditions: LPS aerosol, lavage 4 hours later, in at least one of the range of conditions tested, significance p<0.05. How it is done: The effect of compounds on the influx of neutrophils to the lung in LPS-challenged rats is evaluated as follows. The test compound is suspended in one of the following solutions: 0.5% tween 80/PBS, 0.5% tween 80/saline, 10% EtOH/saline (with pH adjusted to 2.0, or 8.0 with HCl, or unadjusted), Saline (pH 2.0, 6.5 or 8.0, 0.5% Tragacanth, 1% DMSO/20% Encapsin/Saline, or acidified 5% Tragacanth. The suspension process may be aided by the use of a glass homogenizer. For intratracheal administration, the animals are anesthetized with inhaled isoflurane and placed in a supine position, the trachea is intubated with a steel gavage needle (1.5 inch, 22 gauge, small ball) or a Penn-Century Microsprayer Aerosolizer (model IA-LB) and 200 ul of dosing solution is delivered. The animals are visually monitored during the recovery process, which typically occurs within two minutes.
Rats treated with compound or vehicle (15 min-24 hours pretreatment) are exposed to an LPS aerosol (100 ug/ml) for 15 min. Four hours later the rats are euthanized with pentobarbital (100 mg/kg, i.p.) and the airways are lavaged with 5 washes of 5 ml of phosphate buffered saline. The harvested cells are stained (Diffquick) and counted to determine total and differential cell data. In a typical study, macrophages represent 40-70% of the total cells, and polymorphonuclear cells 30-60% of the total cells. Inhibition of neutrophil levels relative to no compound controls is calculated based on the differential counts.
The assay has varying conditions, such as concentration, pretreat time, form of the compound (crystalline, amorphous, salts, micronised), and a wet or dry application of the compound.
The data is obtained as % inhibition using a particular concentration and pretreat time.

Entries after “also recorded” stand apart in the source; their conditions may differ.

As for `Cc1ccc(C(=O)NC(C)C)cc1-c1nc(NCCN(C)C)nc2c1CNC(=O)N2c1c(F)cccc1F` [Example 37, 3-(8-(2,6-difluorophenyl)-2-{[2-(dimethylamino)ethyl]amino}-7-oxo-5,6,7,8-tetrahydropyrimido[4,5-d]pyrimidin-4-yl)-4-methyl-N-(1-methylethyl)benzamide], the inhibition of neutrophilia entry was “statistically nonsignificant inhibition of neutrophilia”. As for `Cc1ccc(C(=O)Nc2ccc(F)cc2)cc1-c1nc(NC2CCN(C)CC2)nc2c1CNC(=O)N2c1c(F)cccc1F` [Example 39, 3-{8-(2,6-difluorophenyl)-2-[(1-methyl-4-piperidinyl)amino]-7-oxo-5,6,7,8-tetrahydropyrimido[4,5-d]pyrimidin-4-yl}-N-(4-fluorophenyl)-4-methylbenzamide], the inhibition of neutrophilia result is on record as “statistically nonsignificant inhibition of neutrophilia”. As for `Cc1ccc(C(=O)NC(C)C)cc1-c1nc(NCCCN(C)C)nc2c1CNC(=O)N2c1c(F)cccc1F` [Example 40, 3-(8-(2,6-difluorophenyl)-2-{[3-(dimethylamino)propyl]amino}-7-oxo-5,6,7,8-tetrahydropyrimido[4,5-d]pyrimidin-4-yl)-4-methyl-N-(1-methylethyl)benzamide], the entry is “statistically significant inhibition of neutrophilia”.

Take `Cc1ccc(C(=O)Nc2ccc(F)cc2)cc1-c1nc(NCCCN(C)C)nc2c1CNC(=O)N2c1c(F)cccc1F` [Example 42, 3-(8-(2,6-difluorophenyl)-2-{[3-(dimethylamino)propyl]amino}-7-oxo-5,6,7,8-tetrahydropyrimido[4,5-d]pyrimidin-4-yl)-N-(4-fluorophenyl)-4-methylbenzamide]: the inhibition of neutrophilia result was “statistically significant inhibition of neutrophilia”.

Consider `CCN(CC)CCCNc1nc(-c2cc(C(=O)Nc3ccc(F)cc3)ccc2C)c2c(n1)N(c1c(F)cccc1F)C(=O)NC2` [Example 43, 3-[2-{[3-(diethylamino)propyl]amino}-8-(2,6-difluorophenyl)-7-oxo-5,6,7,8-tetrahydropyrimido[4,5-d]pyrimidin-4-yl]-N-(4-fluorophenyl)-4-methylbenzamide], for which the inhibition of neutrophilia entry is “inactive”. As to `CCCNC(=O)c1ccc(C)c(-c2nc(N(C)CCCN(C)C)nc3c2CNC(=O)N3c2c(F)cccc2F)c1` [Example 53, 3-{8-(2,6-difluorophenyl)-2-[[3-(dimethylamino)propyl](methyl)amino]-7-oxo-5,6,7,8-tetrahydropyrimido[4,5-d]pyrimidin-4-yl}-4-methyl-N-propylbenzamide], the inhibition of neutrophilia entry is on record as “statistically nonsignificant inhibition of neutrophilia”.

`Cc1ccc(C(=O)NC(C)C)cc1-c1nc(N2CCC(N3CCCCC3)CC2)nc2c1CNC(=O)N2c1c(F)cccc1F` [Example 57, 3-[2-(1,4′-bipiperidin-1′-yl)-8-(2,6-difluorophenyl)-7-oxo-5,6,7,8-tetrahydropyrimido[4,5-d]pyrimidin-4-yl]-4-methyl-N-(1-methylethyl)benzamide]: the inhibition of neutrophilia entry is “statistically nonsignificant inhibition of neutrophilia”.

As to `Cc1ccc(C(=O)NC(C)C)cc1-c1nc(N2CCC(N3CCCC3)CC2)nc2c1CNC(=O)N2c1c(F)cccc1F` [Example 60, 3-{8-(2,6-difluorophenyl)-7-oxo-2-[4-(1-pyrrolidinyl)-1-piperidinyl]-5,6,7,8-tetrahydropyrimido[4,5-d]pyrimidin-4-yl}-4-methyl-N-(1-methylethyl)benzamide], the inhibition of neutrophilia result was “statistically nonsignificant inhibition of neutrophilia; also recorded: inactive”.

`Cc1ccc(C(=O)NC(C)C)cc1-c1nc(N2CCC(N3CCC(C)CC3)CC2)nc2c1CNC(=O)N2c1c(F)cccc1F` [Example 70, 3-[8-(2,6-difluorophenyl)-2-(4-methyl-1,4′-bipiperidin-1′-yl)-7-oxo-5,6,7,8-tetrahydropyrimido[4,5-d]pyrimidin-4-yl]-4-methyl-N-(1-methylethyl)benzamide]: the inhibition of neutrophilia entry is listed as “statistically significant inhibition of neutrophilia”.
